# Measured values published in PubChem BioAssay AID1919004 (Molecular Pharmacology Branch, DTP, NCI, 2023).
# Values joined by “and” are separate entries in the source; they are usually repeats but may differ in a detail not shown here. Identical values can stand only once.
# System: 883617-216-R-J1-PDC complex spheroids, growth, % test/control
# Assay: Anticancer human tumor 883617-216-R-J1-PDC patient-derived bladder carcinoma cell line growth inhibition [AhR]
# Settings: for viability, T/C: stronger effect = lower value
# Method in brief: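 Spheroids combined tumor cells with HUVEC endothelial cells and human MSCs as stroma. AhR antagonists were paired with standard or investigational drugs, each dosed in half-log steps down from near clinical Cmax, or from 10 microM where Cmax was unknown.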
# [1] = curve of first compound, second compound 0.1 µM
# [2] = curve of first compound, second compound 0.316 µM
# [3] = curve of first compound, second compound 1 µM
# [4] = curve of first compound, second compound 3.16 µM
# [5] = curve of first compound, second compound 10 µM
# 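Further: exposure lasted 7 days after dosing on day 3 of spheroid growth.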
smiles,measurement,setting,value
CC(C)CC(NC(=O)C(Cc1ccccc1)NC(=O)c1cnccn1)B(O)O (configuration not stated) + Cc1ccccc1N=Nc1ccc(NC(=O)c2ccnn2C)c(C)c1,IC50,[1],7.48 nM
same,IC50,[2],7.89 nM
same,IC50,[3],7.56 nM
same,IC50,[4],7.93 nM
same,IC50,[5],9.89 nM
same,"viability, T/C","second compound 0.1 µM, first compound 0.000949 µM",85.9%
same,"viability, T/C","second compound 0.1 µM, first compound 0.003 µM",97.5%
same,"viability, T/C","second compound 0.1 µM, first compound 0.00949 µM",39.1%
same,"viability, T/C","second compound 0.1 µM, first compound 0.03 µM",0.08%
same,"viability, T/C","second compound 0.1 µM, first compound 0.0949 µM",0.03%
same,"viability, T/C","second compound 0.1 µM, first compound 0.3 µM",0.11%
same,"viability, T/C","second compound 0.316 µM, first compound 0.000949 µM",90.5%
same,"viability, T/C","second compound 0.316 µM, first compound 0.003 µM",92.7%
same,"viability, T/C","second compound 0.316 µM, first compound 0.00949 µM",42.1%
same,"viability, T/C","second compound 0.316 µM, first compound 0.03 µM",0.06%
same,"viability, T/C","second compound 0.316 µM, first compound 0.0949 µM",0.05%
same,"viability, T/C","second compound 0.316 µM, first compound 0.3 µM",0.11%
same,"viability, T/C","second compound 1 µM, first compound 0.000949 µM",84.8%
same,"viability, T/C","second compound 1 µM, first compound 0.003 µM",89.4%
same,"viability, T/C","second compound 1 µM, first compound 0.00949 µM",40.9%
same,"viability, T/C","second compound 1 µM, first compound 0.03 µM",0.08%
same,"viability, T/C","second compound 1 µM, first compound 0.0949 µM",0.03%
same,"viability, T/C","second compound 1 µM, first compound 0.3 µM",0.1%
same,"viability, T/C","second compound 3.16 µM, first compound 0.000949 µM",79.4%
same,"viability, T/C","second compound 3.16 µM, first compound 0.003 µM",88.2%
same,"viability, T/C","second compound 3.16 µM, first compound 0.00949 µM",43.8%
same,"viability, T/C","second compound 3.16 µM, first compound 0.03 µM",0.11%
same,"viability, T/C","second compound 3.16 µM, first compound 0.0949 µM",2.06%
same,"viability, T/C","second compound 3.16 µM, first compound 0.3 µM",0.76%
same,"viability, T/C","second compound 10 µM, first compound 0.000949 µM",78%
same,"viability, T/C","second compound 10 µM, first compound 0.003 µM",80.8%
same,"viability, T/C","second compound 10 µM, first compound 0.00949 µM",51.9%
same,"viability, T/C","second compound 10 µM, first compound 0.03 µM",0.17%
same,"viability, T/C","second compound 10 µM, first compound 0.0949 µM",0.62%
same,"viability, T/C","second compound 10 µM, first compound 0.3 µM",0.21%
Nc1ncn(C2CC(O)C(CO)S2)c(=O)n1 (configuration not stated),"viability, T/C",compound 0.000949 µM,101% and 103% and 61.3%
same,"viability, T/C",compound 0.003 µM,114% and 103% and 79.2%
same,"viability, T/C",compound 0.00949 µM,93.2% and 103% and 71.2%
same,"viability, T/C",compound 0.03 µM,97.5% and 101% and 64%
same,"viability, T/C",compound 0.0949 µM,88.2% and 99% and 72.8%
same,"viability, T/C",compound 0.3 µM,78.9% and 82.5% and 87.1%
same,IC50,curve of compound,> 300 nM
CC[C@@]1(O)C(=O)OCc2c1cc1n(c2=O)Cc2cc3c(CN(C)C)c(O)ccc3nc2-1 + CC(CO)NC(=O)c1cc(-c2ccc(Cl)cc2)nn(-c2cnn(C)c2)c1=O,IC50,[1],> 100 nM
same,IC50,[2],> 100 nM
same,IC50,[3],> 100 nM
same,IC50,[4],> 100 nM
same,IC50,[5],> 100 nM
same,"viability, T/C","second compound 0.1 µM, first compound 0.000316 µM",66.5%
same,"viability, T/C","second compound 0.1 µM, first compound 0.001 µM",93.5%
same,"viability, T/C","second compound 0.1 µM, first compound 0.00316 µM",102%
same,"viability, T/C","second compound 0.1 µM, first compound 0.01 µM",52.4%
same,"viability, T/C","second compound 0.1 µM, first compound 0.0316 µM",82.2%
same,"viability, T/C","second compound 0.1 µM, first compound 0.1 µM",78.4%
same,"viability, T/C","second compound 0.316 µM, first compound 0.000316 µM",87.9%
same,"viability, T/C","second compound 0.316 µM, first compound 0.001 µM",100%
same,"viability, T/C","second compound 0.316 µM, first compound 0.00316 µM",103%
same,"viability, T/C","second compound 0.316 µM, first compound 0.01 µM",104%
same,"viability, T/C","second compound 0.316 µM, first compound 0.0316 µM",117%
same,"viability, T/C","second compound 0.316 µM, first compound 0.1 µM",118%
same,"viability, T/C","second compound 1 µM, first compound 0.000316 µM",81.3%
same,"viability, T/C","second compound 1 µM, first compound 0.001 µM",78%
same,"viability, T/C","second compound 1 µM, first compound 0.00316 µM",107%
same,"viability, T/C","second compound 1 µM, first compound 0.01 µM",58.3%
same,"viability, T/C","second compound 1 µM, first compound 0.0316 µM",62%
same,"viability, T/C","second compound 1 µM, first compound 0.1 µM",97%
same,"viability, T/C","second compound 3.16 µM, first compound 0.000316 µM",73.7%
same,"viability, T/C","second compound 3.16 µM, first compound 0.001 µM",104%
same,"viability, T/C","second compound 3.16 µM, first compound 0.00316 µM",63.6%
same,"viability, T/C","second compound 3.16 µM, first compound 0.01 µM",81.9%
same,"viability, T/C","second compound 3.16 µM, first compound 0.0316 µM",95.5%
same,"viability, T/C","second compound 3.16 µM, first compound 0.1 µM",70.5%
same,"viability, T/C","second compound 10 µM, first compound 0.000316 µM",88.1%
same,"viability, T/C","second compound 10 µM, first compound 0.001 µM",95%
same,"viability, T/C","second compound 10 µM, first compound 0.00316 µM",80.5%
same,"viability, T/C","second compound 10 µM, first compound 0.01 µM",66.4%
same,"viability, T/C","second compound 10 µM, first compound 0.0316 µM",113%
same,"viability, T/C","second compound 10 µM, first compound 0.1 µM",112%
